Reference: patent publication US20260191986A1, “LIPOSOME-BASED DRUG CARRIER FOR IMMUNE ANTICANCER THERAPY AND METHOD FOR PRODUCING SAME” (KONKUK UNIVERSITY INDUSTRIAL COOPERATION CORP, priority 2022, published 2026)

Columns and labels:
IDO1 [1] = experiment: IDO1 expression in tumors obtained by vaccine approach; type: in vivo, Balb/c mice; settings: mice vaccinated with drug-treated 4T1 cells
Experimental: (§1) The effect of DOX-induced ICD in Balb/c mice was further validated by vaccine approach. Dead 4T1 cells were subcutaneously injected into one flank of Balb/c mice together with an anticancer agent such as DOX (30 μM) or CIS (100 μM), or phosphate-buffered saline (PBS; control), twice for 2 weeks, with a 1-week interval. At two weeks after the first injection, live 4T1 cancer cells were injected into the opposite flank and the change in tumor size was evaluated for 25 days.
(§2) Subsequently, it was investigated whether the DOX-induced ICD can induce the expression of IDO1 in a breast cancer mouse model as an indicator of the immune evasion mechanism in TME. In order to investigate the relationship between the expression of ICD and IDO1 in TME, the expression level of IDO1 in the tumors obtained by vaccine approach was investigated, and the result is shown in FIG. 4. […] Meanwhile, it was confirmed that the DOX-induced ICD upregulates IDO1 expression in tumor tissues via the immune evasion mechanism.

MDA-MB-231 cells [2] = experiment: Cell surface CRT expression (ICD biomarker) after DOX or CIS; type: cell-based, human; settings: different concentrations of drug
Experimental: (§3) First, the efficacy of doxorubicin (DOX) as a potent ICD inducer in a breast cancer 4T1 tumor model and cancer cells was tested by monitoring the change in the TME (tumor microenvironment). To validate the immunogenic effect of DOX, immunogenic cell death (ICD) biomarkers, such as extracellularly released ATP and cell surface expressing CRT, were monitored in breast cancer cells (human: MDA-MB-231 cells; mouse: 4T1 cells) treated with different concentrations of DOX and cisplatin (CIS), a non-ICD inducer, as a comparative control group.

MDA-MB-231 cells [3] = experiment: Extracellularly released ATP (ICD biomarker) after DOX or CIS; type: cell-based, human; settings: different concentrations of drug
Experimental: as §3

4T1 cells [4] = experiment: Cell surface CRT expression (ICD biomarker) after DOX or CIS; type: cell-based, mouse; settings: different concentrations of drug
Experimental: as §3

4T1 cells [5] = experiment: Vaccine approach: tumor growth in Balb/c mice vaccinated with drug-treated dead 4T1 cells; type: in vivo; settings: DOX 30 μM or CIS 100 μM; live 4T1 cells in opposite flank; 25 days
Experimental: as §1

4T1 cells [6] = experiment: Extracellularly released ATP (ICD biomarker) after DOX or CIS; type: cell-based, mouse; settings: different concentrations of drug
Experimental: as §3

TNFα = TNFα secretion in the tumor of 4T1 tumor xenograft mice; settings: mouse, in vivo
Experimental: As the effect of Aptm [DOX/IDO1] on the control of tumor microenvironment (TME), cell death, ICD marker, immune cell ratio and TNF secretion in the tumor tissue of 4T1 tumor xenograft mice were evaluated. In order to investigate DOX-induced apoptotic cell death, TUNEL assay was conducted with the tumor tissues of 4T1 tumor xenograft mice.
(§4) The effective inhibition of tumor growth improves anticancer immune response by reversing immunosuppressive TME to immunoresponsive TME in vivo by Aptm [DOX/IDO1]. In order to investigate whether tumor size reduction and TME control are mediated by IDO1 siRNA delivered to the 4T1 tumor xenograft mice, the IDO1 expression level in the tumor tissue of the mice was analyzed on day 24, and the result is shown in FIG. 20. The IDO1 expression level in the tumor obtained from the mice treated with free DOX was increased as compared to the IDO1 expression level in the tumor obtained from the mice treated with saline. […] In the tumor, the IDO1 expression was increased by the administration of Aptm [DOX/Ctr] lacking IDO1 siRNA. It is thought that the increased IDO1 expression is due to the improved ICD against the tumor due to the effective delivery of DOX using the CD44/PD-L1 aptamosome. Accordingly, the inhibition of IDO1 in combination with ICD can induce anticancer immune response in the immunoresponsive TME by Aptm [DOX/IDO1].

MDA-MB-231 cells [7] = experiment: Intracellular distribution of DOX by confocal microscopy; type: cell-based, human
Experimental: (§5) In order to investigate the intracellular distribution of DOX and IDO1 siRNA delivered by the CD44/PD-L1 aptamosome, cells were treated with free DOX, Lipm [DOX/IDO1] and Aptm [DOX/IDO1] and analyzed by confocal microscopy with increasing incubation time. […] Nevertheless, a large amount of DOX was delivered easily by Aptm [DOX/IDO1] with the passage of time, and it was gradually delivered into the nucleus of MDA-MB-231 and 4T1 cells within 2 hours.

4T1 breast cancer cells = experiment: Tumor metastasis to the lung in 4T1 tumor-bearing mice (H&E); type: in vivo; settings: H&E staining of lung tissue
Text: Finally, it was investigated whether the administration of Aptm [DOX/IDO1] can inhibit tumor metastasis in 4T1 tumor-bearing mice. For detection of metastatic tumors, tumor tissues from the terminal part of the lung of the mice were stained with hematoxylin and eosin (H&E), and the images are shown in FIG. 21. […] Therefore, it was confirmed that the systemic administration of Aptm [DOX/IDO1] through the blood can inhibit tumor metastasis through targeted delivery of an anticancer drug targeting breast cancer cells.

[8] = test system: control group liver cells (HepG2); experiment: Cytotoxicity (cell survivability); type: cell-based; settings: 24 hours and 36 hours
Experimental: (§6) Next, the cytotoxicity by an anticancer agent delivered together with Aptm [DOX/IDO1] was evaluated, and the result is shown in FIG. 16. Breast cancer cells (MDA-MB-231 and 4T1) and control group liver cells (HepG2) were treated with free DOX, Lipm [DOX/IDO1] and Aptm [DOX/IDO1] for 24 hours and 36 hours.

IDO1 [9] = experiment: IDO1 expression level in tumor tissue of 4T1 tumor xenograft mice; type: in vivo; settings: day 24
Experimental: as §4

breast cancer cells = experiment: DOX-induced ICD: extracellular ATP release after liposome treatment; type: cell-based
Experimental: Then, DOX-induced ICD was evaluated by monitoring extracellular ATP release and expression of cell surface CRT, which is an ICD marker, and the result is shown in FIG. 14.

4T1 tumor = experiment: Anticancer efficacy in 4T1 tumor xenograft mice (tumor size); type: in vivo; settings: i.v. 4 times with 4-day intervals; DOX 0.3 mg/kg, siRNA 0.35 mg/kg; day 24
Experimental: In addition, the anticancer efficacy of Aptm [DOX/IDO1] in the 4T1 tumor xenograft mice was investigated by measuring the decrease of tumor size, and the result is shown in FIG. 18. After the tumor size grew to 60-80 mm^3, the mice were divided randomly into 5 groups (5 mice per group) and each reagent was intravenously 4 times with 4-day intervals: saline (control group), free DOX (0.3 mg/kg), Lipm [DOX/IDO1], Aptm [DOX/IDO1] and Aptm [DOX/Ctr], each liposome containing the same amount of DOX (0.3 mg/kg) and siRNA (0.35 mg/kg). […] Morbidity was not observed when the mice were treated with Aptm [DOX/IDO1]. In particular, when the mice were treated with Aptm [DOX/Ctr] containing scrambled siRNA instead of IDO1 siRNA, the tumor size decreased by about 37.0% (vs. saline administration) due to decreased effect of inhibiting tumor growth. That is, the delivered IDO siRNA inhibits tumor growth by controlling TME.

4T1 cells [10] = experiment: Intracellular distribution of DOX by confocal microscopy; type: cell-based, mouse
Experimental: as §5

MDA-MB-231 = experiment: Cytotoxicity (cell survivability); type: cell-based, human; settings: 24 hours and 36 hours
Experimental: as §6

4T1 = experiment: Cytotoxicity (cell survivability); type: cell-based, mouse; settings: 24 hours and 36 hours
Experimental: as §6

MDA-MB-231 cells [11] = experiment: IDO1 and PD-L1 expression under IFNγ stimulation; type: cell-based, human
Text: (§7) ICD-mediated immune response can invalidate the immune evasion mechanism of TME, such as overexpression of the immune checkpoint protein and IDO1. Accordingly, the expression of IDO1 and PD-L1 under IFNγ stimulation was monitored also in MDA-MB-231 and 4T1 cells.
as §2

4T1 cells [12] = experiment: IDO1 and PD-L1 expression under IFNγ stimulation; type: cell-based, mouse
Text: as §7, §2

| Molecule | IDO1 protein and mRNA expression in tumor tissues (IDO1 [1]) | CRT expression on the cancer cell surface (MDA-MB-231 cells [2]) | level of extracellularly released ATP (MDA-MB-231 cells [3]) | CRT expression on the cancer cell surface (4T1 cells [4]) | tumor growth after vaccination with drug-treated dead 4T1 cells (4T1 cells [5]) | level of extracellularly released ATP (4T1 cells [6]) | TNFα secretion in the tumor (TNFα) | time until DOX reached the nucleus (MDA-MB-231 cells [7]) | metastatic tumor in the lung (4T1 breast cancer cells) | cell survivability [8] | IDO1 expression level in the tumor (IDO1 [9]) | extracellular ATP release (breast cancer cells) | tumor size decrease as compared to saline (4T1 tumor) | time until DOX reached the nucleus (4T1 cells [10]) | cell survivability (MDA-MB-231) | cell survivability (4T1) | expression level of IDO1 (MDA-MB-231 cells [11]; IFNγ stimulation) | PD-L1 expression on the cell surface (MDA-MB-231 cells [11]; IFNγ-treated cells) | expression level of IDO1 (4T1 cells [12]; IFNγ stimulation) | PD-L1 expression on the cell surface (4T1 cells [12]; IFNγ-treated cells) |
| --- | --- | --- | --- | --- | --- | --- | --- | --- | --- | --- | --- | --- | --- | --- | --- | --- | --- | --- | --- | --- |
| N.N.[Cl][Pt][Cl] [CIS, cisplatin] | increased expression of IDO1 protein and mRNA | did not increase the CRT expression on the cancer cell surface | did not increase the level of extracellular ATP | did not increase the CRT expression on the cancer cell surface | did not inhibit tumor growth significantly | did not increase the level of extracellular ATP |  |  |  |  |  |  |  |  |  |  |  |  |  |  |
| COc1cccc2c1C(=O)c1c(O)c3c(c(O)c1C2=O)C[C@@](O)(C(=O)CO)C[C@@H]3O[C@H]1C[C@H](N)[C@H](O)[C@H](C)O1 [DOX, doxorubicin] | highest IDO1 protein and mRNA expression | increased gradually as the concentration of DOX increased | increased gradually with the concentration of DOX | increased gradually as the concentration of DOX increased | effectively inhibited tumor growth | increased gradually with the concentration of DOX | relatively low TNFα secretion | up to 1 hour | extensive filtration of 4T1 breast cancer cells was observed in the lung | lowest | increased | A large amount of ATP was released | did not reduce tumor size enough | up to 1 hour | lowest | lowest |  |  |  |  |
| IFNγ: cytokine used to stimulate IDO1 and PD-L1 expression in cancer cells |  |  |  |  |  |  |  |  |  |  |  |  |  |  |  |  | significantly upregulated | highly expressed | significantly upregulated | highly expressed |
